The test system of test [1] is osteoprogenitor cell MC3T3-E1. The test can be described thus: Alkaline phosphatase (osteoblast differentiation marker) activity after ornithine addition, MC3T3-E1. In kind it is cell-based. The conditions noted are these: 7 days culture, vs no addition of ornithine. As to the method:
The cells were placed in a T-75 flask using a medium and cultured in a CO2 incubator (5% CO2, 37° C.). The medium was changed every other day, and the cells were collected when they reached 80% confluence and used for the test.
(§1) The cells were adjusted with medium to 1.2x10^5 cells/0.2 mL/well and seeded in a 48-well plate. […] After culturing for 7 days, the cells were washed once with PBS for ALP activity measurement and then cryopreserved together with the plate. In addition, after culturing for 14 days, the culture supernatant was sampled for measurement of the amount of osteocalcin used in the below-mentioned Experimental Example 2, and cryopreserved. The test was performed with n=5 and the medium was changed every 3-4 days.
The cells were washed with PBS and lysed with 60 µL/well of cell lysing agent (Cell-LyEX1 containing 2 mM PMSF). After stirring the plate at room temperature for 30 min, the supernatant was diluted 5-fold and the obtained solution was used as a sample for measurement. ALP activity in the cells was measured by LabAssay ALP. With this kit, ALP activity was measured from the amount of p-nitrophenol per unit amount of protein produced within a given period of time. The amount of protein in the solution was measured using Micro BCA Protein Assay Reagent Kit.
(§2) The test was a two-sided test with Student’s t-test, and P<0.05 (less than 5% of null hypothesis) or more was judged as significant difference. The data in the graph is shown in mean±standard error.

Test [2] relates to osteoporosis-disuse muscle atrophy simultaneous onset mouse model. The test can be described thus: Gastrocnemius muscle weight, osteoporosis-disuse muscle atrophy simultaneous onset mouse model. In kind it is in vivo. The conditions noted are these: OVX mice with cast fixation, ornithine 1% blended feed, vs OVX (ornithine non-administration with cast fixation) group.
Test [3] concerns osteoprogenitor cell MC3T3-E1. The test can be described thus: Alkaline phosphatase activity after ornithine addition, MC3T3-E1, influence of BMP-2 concentration. The format is cell-based. Particulars: ornithine 5 mg/mL, 7 days, vs ornithine no addition. As to the method:
The cells were placed in a 10 cm petri dish using a medium and cultured in a CO2 incubator (5% CO2, 37° C.). The medium was changed every other day, and the cells were collected when they reached 80% confluence and used for the test.
The cells were adjusted with medium to 1.2x10^5 cells/0.2 mL/well and seeded in a 48-well plate. […] After 7 days, the cells were washed once with PBS, 50 µL of 0.1% Triton-X was added, and the mixture was further sonicated for 1 min to prepare a cell lysate. The test was performed with n=4 and the medium was changed every 3-4 days.
ALP activity of the above-mentioned cell lysate was measured by LabAssay ALP. With this kit, ALP activity was measured from the amount of p-nitrophenol per unit amount of protein produced within a given period of time. The amount of protein in the solution was measured using Micro BCA Protein Assay Reagent Kit.
as §2

Test [4] deals with osteoprogenitor cell MC3T3-E1. As to the kind of experiment: Osteocalcin (osteoblast differentiation marker) production amount after ornithine addition, MC3T3-E1. The format is cell-based. Particulars: ornithine 5.0 mg/mL, 14 days culture, culture supernatant, vs no addition of ornithine. As to the method:
as §1
For the measurement of the amount of osteocalcin in the culture supernatant, the supernatant was diluted 10-fold and the measurement was performed using Mouse Osteocalcin EIA kit.
as §2

Test [5] has as its system osteoclast progenitor cell RAW264. As to the kind of experiment: Osteoclast number measurement (TRAP staining) after ornithine addition, RAW264. In kind it is cell-based. The conditions noted are these: 50 ng/mL RANKL, 7 days, vs ornithine non-addition. As to the method: The cells were placed in a T-75 flask using a medium and cultured in a CO2 incubator (5% CO2, 37° C.). The medium was changed every other day, and the cells were collected when they reached 80% confluence and used for the test. Cells were prepared in a test medium at 3x10^3 cells/0.1 mL/well and seeded in a 96 well plate. […] After culturing for 7 days, TRAP staining was performed, and TRAP staining-positive and multinucleated cells were counted, based on which the ability to suppress differentiation into osteoclasts was examined by comparison. The medium was changed every 3-4 days. The test was performed with n=5. The test was a two-sided test with Student’s t-test, and P<0.05 (less than 5% of null hypothesis) or more was judged as significant difference. The data in the graph is shown in mean±standard error.

Results on 1 molecule are retold here after US20230140522A1, “COMPOSITION FOR AMELIORATING OR PREVENTING DECREASES IN BONE STRENGTH” (priority 2020, published 2023).

Regarding `Cl.NCCC[C@H](N)C(=O)O` [ornithine, L-Ornithine Monohydrochloride], the alkaline phosphatase activity entry in test [1] (ornithine 0.2 mg/mL), in test [1] (ornithine 1.0 mg/mL), in test [1] (ornithine 5.0 mg/mL), in test [3] (BMP-2 50 ng/mL), in test [3] (BMP-2 100 ng/mL) and in test [3] (BMP-2 200 ng/mL) was “significantly increased” throughout. In addition, the “gastrocnemius muscle weight (per body weight)” value in test [2] is on record as “increased”. In addition, the osteocalcin production amount entry in test [4] is “significantly increased”. Moreover, the number of osteoclasts entry is “decreased” in test [5] (ornithine 0.02 mg/mL), “significantly decreased” in test [5] (ornithine 0.1 mg/mL) and “significantly decreased” in test [5] (ornithine 0.5 mg/mL).
